Source: patent US8980846B2, “Composition containing styraxlignolide A or the aglycone thereof as an active ingredient for preventing or treating asthma” (Korea Research Institute of Bioscience and Biotechnology, priority 2010, dated 2015)

Experiments:
[1] = Body weight in asthma-induced mice; type: in vivo, Balb/c female mice; conditions: 3 mg/kg PO 1 hour prior to ovalbumin inhalation
Protocol: (§1) To prepare bronchial asthma-induced experimental animals, six-week-old Balb/c female mice of mean weight about 20 g were used. After one week of adaptation, individuals which had no observed abnormality on a basic physical examination were targeted. 200 μL of phosphate buffered saline (PBS)(pH 7.4) in which 2 mg of aluminum hydroxide (A8222, Sigma, St. Louis, Mo.) and 20 μg of ovalbumin (A5503, Sigma, St. Louis, Mo.) were suspended was injected into the peritoneal cavity at two-week intervals to result in sensitization. On days 28 to 30 after the first intraperitoneal administration of ovalbumin, inhalation challenge was performed for 30 min with 1% ovalbumin using an ultrasonic atomizer. 24 hours after the last antigen administration, airway hyperresponsiveness was measured. After 24 hours, a lethal dose of pentobarbital (Entobar®, Hanlim Pharm Co., Ltd.) was administered, body weight measurement and bronchotomy were performed, and bronchoalveolar lavage was performed with a total 1.2 mL of physiological saline, and then, samples were collected. […] Eight white mice were used for each group. Experimental groups for homoegonol were a group (hE7.5) in which animals were orally administered with 7.5 mg/kg homoegonol 1 hour prior to ovalbumin inhalation, a group (hE15) in which animals were orally administered with 15 mg/kg homoegonol 1 hour prior to ovalbumin inhalation, and a group (hE30) in which animals were orally administered with 30 mg/kg homoegonol 1 hour prior to ovalbumin inhalation, and five white mice were used for each group.
(§2) To determine an effect of styraxlignolide A on reduction in body weight in asthma-induced mice, body weight of each mouse prepared in Example 2 was measured. For statistical analyses for all measurements, means and standard errors (mean±S.E.) according to a number of variables were calculated, and comparison between each group was analyzed by performing a Mann-whitney U test using SPSS 10.0. Statically significance was accepted at p<0.05.
as §2, with “homoegonol” for “styraxlignolide A”

[2] = system: airway hyperresponsiveness; assay: Airway hyperresponsiveness, Penh by one chamber plethysmography after methacholine inhalation; type: in vivo, Balb/c female mice; conditions: asthma-induced mice, homoegonol study, 3 mg/kg PO
Protocol: as §1, with “Experimental groups for homoegonol were a group (hE7.5) in which animals were orally administered with 7.5 mg/kg homoegonol 1 hour prior to ovalbumin inhalation, a group (hE15) in which animals were orally administered with 15 mg/kg homoegonol 1 hour prior to ovalbumin inhalation, and a group (hE30) in which animals were orally administered with 30 mg/kg homoegonol 1 hour prior to ovalbumin inhalation, and five white mice were used for each group.” left out
The effect of styraxlignolide A on airway hyperresponsiveness caused by asthma occurrence was examined by measuring airway resistance with one chamber plethysmography (All medicus, Seoul, Republic of Korea) and degree of airway resistance was assessed by measuring Penh (enhanced pause) values. The baseline value was measured under a normal respiratory condition, and then, PBS was inhaled using an ultrasonic atomizer for 3 min, and Penh values were measured over 3 min. […] Louis, Mo.) which is used in general methods for diagnosis of bronchial asthma were inhaled and Penh values were measured. Penh value is shown in the following Equation 1, and the resulting Penh value was expressed as a percent increase in Penh after inhalation of each concentration of methacholine. The baseline Penh (saline challenge) was expressed as 100%.
Te: expiratory time (sec), the time from inspiration to the next inspiration
RT: relaxation time, the elapsed time between the beginning of the expiration and the moment when the remaining 30% of the tidal volume has been reached during expiration
PEF: Peak expiration flow
PIF: Peak inspiration flow
To examine the effect of homoegonol on airway hyperresponsiveness caused by asthma occurrence, Penh value was measured according to the method in <Experimental Example 2>.

[3] = system: inflammatory cells in bronchoalveolar lavage fluid; assay: Inflammatory cell counts in bronchoalveolar lavage fluid (Diff-Quick staining); type: in vivo, Balb/c female mice; conditions: asthma-induced mice
Protocol: as §1
Bronchoalveolar lavage fluid was collected from individuals of each experimental group in <Example 2> and right after the collection, fluid was stained with trypan blue. The number of total cells except dead cells was calculated using a hemocytometer. Then, Diff-Quick staining (Sysmex, Swizerland) was performed after smear preparation with Cytospin II, and eosinophils and other inflammatory cells were differentially counted.
To examine the effect of homoegonol on asthma, variation in the numbers of asthma-related inflammatory cells was measured according to the method in <Experimental Example 3>.

[4] = system: alanine aminotransferase (ALT) and aspartate aminotransferase (AST) in serum; type: in vivo; conditions: mouse, in vivo, po, 3 mg/kg
Protocol: as §1
To examine liver toxicity of styraxlignolide A, a commercially available ELISA kit (BECKMAN Coulter, Inc., Fullerton, Calif., USA) was used to measure alanine aminotransferase (ALT) and aspartate aminotransferase (AST) in serum.

goblet cells [5] = assay: Ratio of goblet cells to bronchial epithelial cells (PAS staining); type: in vivo, Balb/c female mice; conditions: asthma-induced mice, styraxlignolide A study; 3 mg/kg PO 1 hour prior to ovalbumin inhalation
Protocol: as §1
Lungs removed from each individual were subjected to conventional formalin fixation and paraffin embedding, and permanent section slides of 4 μm thickness were prepared, and periodic acid Schiff (PAS) staining was performed to determine goblet cells. Proliferation of goblet cells was assessed by measuring the ratio of goblet cells to bronchial epithelial cells.
In accordance with the method in <Experimental Example 7-2>, the ratio of goblet cells which were determined by periodic acid-Schiff staining to bronchial epithelial cells were measured to assess proliferation of goblet cells.

[6] = system: fibrosis in subsegmental bronchi; assay: Fibrosis in subsegmental bronchi (Masson's trichrome staining); type: in vivo, Balb/c female mice; conditions: asthma-induced mice, styraxlignolide A study; 3 mg/kg PO 1 hour prior to ovalbumin inhalation
Protocol: as §1

TGF-β1 = TGF-β1 in bronchoalveolar lavage fluid; type: in vivo, Balb/c female mice; conditions: asthma-induced mice, homoegonol study; 3 mg/kg PO
Protocol: as §1
(§3) To examine the effect of homoegonol on airway remodeling, generation of TGF-β1 and IL-17 in bronchoalveolar lavage fluid was measured.

IL-17 = IL-17 in bronchoalveolar lavage fluid; type: in vivo, Balb/c female mice; conditions: asthma-induced mice, homoegonol study; 3 mg/kg PO
Protocol: as §1, §3

[7] = system: inflammatory cells in bronchoalveolar lavage fluid; assay: Inflammatory cell counts in bronchoalveolar lavage fluid (Diff-Quick staining); type: in vivo, Balb/c female mice; conditions: asthma-induced mice; remark: listed apart in the source
ovalbumin-specific IgE = assay: IgE levels in serum and bronchoalveolar lavage fluid (ELISA); type: in vivo, Balb/c female mice; conditions: asthma-induced mice, homoegonol study, 3 mg/kg PO
[8] = system: inflammatory cells in the airway mucosa; assay: Inflammatory cell infiltration in airway mucosa, inflammatory index (H&E staining); type: in vivo, Balb/c female mice; conditions: asthma-induced mice, scale 0-4
goblet cells [9] = assay: Ratio of goblet cells to bronchial epithelial cells (PAS staining); type: in vivo, Balb/c female mice; conditions: asthma-induced mice, homoegonol study, 3 mg/kg PO
[10] = styraxlignolide A study, 3 mg/kg PO 1 hour prior to ovalbumin inhalation
[11] = homoegonol study, 3 mg/kg PO, bronchoalveolar lavage fluid, 3 mg/kg
[12] = homoegonol study, 3 mg/kg PO, 3 mg/kg

C[C@@H]1C[C@H]2[C@@H]3CCC4=CC(=O)C=C[C@]4(C)[C@@]3(F)[C@@H](O)C[C@]2(C)[C@@]1(O)C(=O)CO [DEXA, dexamethasone]
body weight ([1]; homoegonol study): 19.98 ± 0.39 g
body weight ([1]; styraxlignolide A study): 20.49 ± 0.29 g
Penh values ([2]; methacholine 0 mg/ml): 0.4407 ± 0.0422
Penh values ([2]; methacholine 12.5 mg/ml): 0.7768 ± 0.1475
Penh values ([2]; methacholine 25 mg/ml): 0.8900 ± 0.1619
Penh values ([2]; methacholine 50 mg/ml): 1.1036 ± 0.4048
Number of cells, Other inflammatory cells ([3]; homoegonol study, 3 mg/kg PO, bronchoalveolar lavage fluid): 18.72 ± 2.2919 ×10^3 cells/mouse
numbers of eosinophils in bronchoalveolar lavage fluid [3, 10]: 41.88±9.08
serum ALT [4]: 274.67±12.12 IU/L
serum AST [4]: 369.33±31.27 IU/L
ratio of goblet cells to bronchiolar epithelial cells (goblet cells [5]): 34.96±6.86%
area of a fibrosis stained region per 100 μm of a basement membrane perimeter [6]: 639.59±106.96 μm^2
TGF-β1 concentrations in bronchoalveolar lavage fluid (TGF-β1): 159.2813 ± 12.9548 pg/mL
IL-17 concentrations in bronchoalveolar lavage fluid (IL-17): 48.8409 ± 4.3738 pg/mL
Number of cells, Eosinophils [7, 11]: 1.32±0.49 ×10^3 cells/mouse
Number of cells, Total inflammatory cells [7, 11]: 20.04±4.7744 ×10^3 cells/mouse
numbers of total inflammatory cells in bronchoalveolar lavage fluid [7, 10]: 153.48±19.69
Total IgE level in bronchoalveolar lavage fluid (ovalbumin-specific IgE; bronchoalveolar lavage fluid): 24.3617 ± 4.8149 ng/mL
Total serum IgE level (ovalbumin-specific IgE; serum, Table 2): 9.14 ± 2.0591 µg/mL
Inflammatory index, peribronchiolar [8, 12]: 0.78±0.1315
Inflammatory index, perivascular [8, 12]: 0.44±0.1571
peribronchiolar inflammatory index [8, 10]: 1.46±0.26
Goblet cells %/bronchial epithelial cell unit (goblet cells [9]): 18.7828±5.9397%
